Where two headings read alike, the source gives them in different places. Peptide text beside a SMILES is read from it.
Target: T1, HLA A*0101 (Homo sapiens, UniProt P04439, A114D/A174V/A182V/D101N/D185E/E176A/E190D/L180R/Q94H/R68K/S129P/T187R/V100A/V91M/W191G)
T1 construct: Pure Protein, LLC (ran the assay)
Experiment: biochemical
Assay type: binding

[1] = allele A0101, cell-free competition with fluorescently labeled control peptide, fluorescence polarization at 72 hours

Row | Molecule | IC50 (nM) [1] | further results
1 | ELDYENDIEK [Cluster 357_CVX154] | Non-Binder | 
2 | NVDPNANPNV [Cluster 109_3D7] | Non-Binder | 
3 | CC[C@H](C)[C@H](NC(=O)[C@H](Cc1c[nH]cn1)NC(=O)[C@H](CCCCN)NC(=O)[C@H](CC(=O)O)NC(=O)[C@H](CO)NC(=O)[C@@H]1CCCN1)C(=O)N[C@@H](CCCCN)C(=O)N[C@@H](CCC(=O)O)C(=O)N[C@@H](Cc1ccc(O)cc1)C(=O)O [CL1-62] (H-PSDKHIKEY-OH) |  | IC50 (allele A0101, cell-free competition with fluorescently labeled control peptide, fluorescence polarization at 72 hours, read-out: IC50): 24800 nM
4 | CC[C@H](C)[C@H](NC(=O)[C@H](Cc1c[nH]cn1)NC(=O)[C@H](CCCCN)NC(=O)[C@H](CC(=O)O)NC(=O)[C@H](CO)NC(=O)[C@@H]1CCCN1)C(=O)N[C@H](C(=O)N[C@@H](CCC(=O)O)C(=O)N[C@@H](Cc1ccc(O)cc1)C(=O)O)[C@@H](C)O [Cluster 311_ICS2] (H-PSDKHITEY-OH) |  | IC50: 2670 nM
5 | LSTEWSPCS [327_3D7 (9)] | Non-Binder | 
6 | NVDENANAN [Cluster 292_3D7] | Non-Binder | 
7 | CC[C@H](C)[C@H](NC(=O)[C@H](Cc1c[nH]cn1)NC(=O)[C@H](CCCCN)NC(=O)[C@H](CC(=O)O)NC(=O)[C@H](CO)NC(=O)[C@@H]1CCCN1)C(=O)N[C@@H](CCC(=O)O)C(=O)N[C@@H](CCC(N)=O)C(=O)N[C@@H](Cc1ccc(O)cc1)C(=O)O [Cluster 311_ICS7] (H-PSDKHIEQY-OH) |  | IC50: 2000 nM

Reference: PMC8217813, “Bridging Computational Vaccinology and Vaccine Development Through Systematic Identification, Characterization, and Downselection of Conserved and Variable Circumsporozoite Protein CD4 T Cell Epitopes From Diverse Plasmodium falciparum Strains” (Frontiers in Immunology, 2021)
